From paper PMC5359181 (Protein & Cell, 2016) come the findings set out here.

The target in assay [1] is T1, human equilibrative nucleoside transporter 1 (hENT1) (Homo sapiens, UniProt Q99808, N48Q).
T1 construct: gene SLC29A1; full-length, residues 1-456
T1 sequence (Q99808 1-456 N48Q): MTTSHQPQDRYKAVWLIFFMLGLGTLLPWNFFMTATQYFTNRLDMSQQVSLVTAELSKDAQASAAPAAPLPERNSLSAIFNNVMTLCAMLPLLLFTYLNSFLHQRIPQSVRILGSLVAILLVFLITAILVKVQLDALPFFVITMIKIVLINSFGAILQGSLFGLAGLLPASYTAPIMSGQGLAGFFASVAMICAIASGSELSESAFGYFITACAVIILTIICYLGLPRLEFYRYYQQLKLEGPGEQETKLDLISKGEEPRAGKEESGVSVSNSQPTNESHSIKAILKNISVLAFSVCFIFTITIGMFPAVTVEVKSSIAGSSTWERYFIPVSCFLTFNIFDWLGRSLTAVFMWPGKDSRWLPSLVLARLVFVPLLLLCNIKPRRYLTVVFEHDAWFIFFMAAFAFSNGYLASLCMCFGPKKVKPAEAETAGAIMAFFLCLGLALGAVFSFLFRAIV
The assay can be described thus: proteoliposome competition assay with 3H-adenosine, […] reduction at […]. Type of assay: biochemical. To be noted: read-out: % reduction at 500 μmol/L.

Assay [2] deals with T1, human equilibrative nucleoside transporter 1 (hENT1). Briefly: ITC. In kind it is binding.

Where two headings read alike, the source gives them in different places.

For `Cc1cn([C@@H]2O[C@H](CO)[C@@H](O)[C@H]2O)c(=O)[nH]c1=O` [5-methyluridine], the inhibition at 500 µM in assay [1] is > 90%. As a reminder, the Kd is the constant that tells how readily two partners part at equilibrium. Turning to `Nc1ncnc2nc[nH]c12` [adenine], the dissociation constant Kd in assay [2] came to 5000 ± 500 µM. Regarding `Nc1ncnc2c1ncn2[C@H]1C[C@H](O)[C@@H](CO)O1` [deoxyadenosine], in assay [2] (read-out: Kd), the Kd stood at 190 ± 40 µM. Take `Nc1nc2c(ncn2[C@H]2C[C@H](O)[C@@H](CO)O2)c(=O)[nH]1` [deoxyguanosine]: the inhibition at 500 µM in assay [1] was > 90%. Same read-out and setting: to `O=c1ccn([C@H]2C[C@H](O)[C@@H](CO)O2)c(=O)[nH]1` [deoxyuridine] belongs > 90%; to `Cc1cn([C@H]2C[C@H](O)[C@@H](CO)O2)c(=O)[nH]c1=O` [thymidine], > 90%. Still for that read-out and setting: with `O=c1ccn([C@@H]2O[C@H](CO)[C@@H](O)[C@H]2O)c(=O)[nH]1` [uridine] the figure was > 90%.
